In paper PMC9127750, “Structure-based design of CDC42 effector interaction inhibitors for the treatment of cancer” (Cell reports, 2022):
Where “and” joins values, the source holds several entries; their conditions need not be identical. Identical values can stand only once.

Tested on: WM3248 melanoma cells, 486 antibodies
Assay: Reverse phase protein arrays (RPPA)
Format: cell-based, Human
Source text: Pellets were snap frozen in liquid nitrogen and shipped to MD Anderson Cancer Center core RPPA facility for RPPA analysis (Table S5). Three biological replicates for each sample were generated.
Nomenclatures on the RPPA heatmaps: name_of_antibody.species_of_antibody.status_of_antibody. V - antibody validated; C - validation of antibody in progress; Q - antibody nonspecific; E – under evaluation; antibodies raised in M - mouse, G - goat, R - rabbit, or T - rat.

[1] = Norm_5, replicates 1-3 and Average, relative to Norm_0

CN(C)c1cccc(Nc2cc(-c3ccccc3)nc(C3CCNCC3)n2)c1 [ARN22089, N1,N1-dimethyl-N3-(6-phenyl-2-(piperidin-4-yl)pyrimidin-4-yl)benzene-1,3-diamine]
ATRX.R.C RPPA signal, normalized [1]: 0.868 and 1.119 and 1.361 and 1.116
ATR_pS428.R.C RPPA signal, normalized [1]: 1.018 and 1.013 and 1.046 and 1.026
AceCS1.R.V RPPA signal, normalized [1]: 1.085 and 0.933 and 1.019
Akt1.R.V RPPA signal, normalized [1]: 0.915 and 0.974 and 0.812 and 0.900
Akt1_pS473.R.V RPPA signal, normalized [1]: 1.006 and 0.879 and 0.961
Akt2.R.V RPPA signal, normalized [1]: 0.917 (2×) and 0.925 and 0.908
Akt2_pS474.R.C RPPA signal, normalized [1]: 1.056 and 1.115
Akt.R.V RPPA signal, normalized [1]: 0.986 and 0.968 and 1.009
Akt_pS473.R.V RPPA signal, normalized [1]: 2.087 and 1.212 and 1.121 and 1.473
Akt_pT308.R.V RPPA signal, normalized [1]: 1.212 and 0.937 and 1.110
Ambra1_pS52.R.C RPPA signal, normalized [1]: 0.888 and 0.910 and 0.903 and 0.900
Annexin.I.M.V RPPA signal, normalized [1]: 0.981 and 1.012 and 1.278
Annexin.VII.M.V RPPA signal, normalized [1]: 1.019 and 0.975 and 0.977 and 0.990
Atg3.R.V RPPA signal, normalized [1]: 1.081 and 0.975 and 1.056
Atg4B.R.C RPPA signal, normalized [1]: 1.096 and 1.370 and 1.167
Atg5.R.C RPPA signal, normalized [1]: 1.011 and 1.078 and 1.020
Atg7.R.V RPPA signal, normalized [1]: 1.022 and 1.027
Aurora.A.R.C RPPA signal, normalized [1]: 0.652 and 0.973 and 0.927 and 0.851
Aurora.ABC_pT288_pT232_pT198.R.C RPPA signal, normalized [1]: 0.793 and 0.871 and 0.899 and 0.855
Aurora.B.R.V RPPA signal, normalized [1]: 0.896 and 1.084 and 0.923 and 0.968
Axl.R.V RPPA signal, normalized [1]: 0.968 and 1.169 and 1.152 and 1.097
B7.H3.R.C RPPA signal, normalized [1]: 1.106 and 0.952 and 0.992 and 1.017
B7.H4.R.C RPPA signal, normalized [1]: 1.026 and 0.982 and 1.007 and 1.005
B.Raf.R.C RPPA signal, normalized [1]: 1.062 and 1.061
B.Raf_pS445.R.V RPPA signal, normalized [1]: 1.018 and 1.017 and 1.057 and 1.031
BAP1.M.V RPPA signal, normalized [1]: 0.935 and 0.995 and 0.932 and 0.954
BCL2A1.R.V RPPA signal, normalized [1]: 1.271 and 0.801 and 1.003
BMK1.Erk5_pT218_Y220.R.V RPPA signal, normalized [1]: 0.965 and 0.943 and 0.924
BRCA1.M.C RPPA signal, normalized [1]: 0.876 and 0.959 and 0.998 and 0.944
BRD4.R.V RPPA signal, normalized [1]: 1.085 and 1.161 and 1.113
Bad_pS112.R.V RPPA signal, normalized [1]: 1.029 and 1.014 and 1.062 and 1.035
Bak.R.C RPPA signal, normalized [1]: 1.012 and 1.001 and 1.061 and 1.025
Bax.R.V RPPA signal, normalized [1]: 1.015 and 1.032 and 0.955 and 1.001
Bcl2.R.C RPPA signal, normalized [1]: 0.966 and 1.014 and 0.939 and 0.973
Bcl.xL.R.V RPPA signal, normalized [1]: 1.144 and 0.772 and 0.984
Beclin.R.C RPPA signal, normalized [1]: 0.940 and 1.010 and 0.868 and 0.939
BiP.GRP78.M.C RPPA signal, normalized [1]: 0.904 and 0.981 and 0.932 and 0.939
Bid.R.C RPPA signal, normalized [1]: 1.008 and 0.999 and 1.060 and 1.022
Bim.R.V RPPA signal, normalized [1]: 0.866 and 0.980 and 0.919
X4E.BP1.R.V RPPA signal, normalized [1]: 0.986 and 1.022 and 1.747 and 1.252
X4E.BP1_pS65.R.V RPPA signal, normalized [1]: 1.142 and 1.063 and 0.945 and 1.050
X4E.BP1_pT37_T46.R.V RPPA signal, normalized [1]: 1.104 and 1.054 (2×)
X14.3.3.zeta.R.V RPPA signal, normalized [1]: 0.999 and 1.014
X14.3.3βR.V RPPA signal, normalized [1]: 0.972 and 0.950 and 1.017 and 0.980
X14.3.3εM.C RPPA signal, normalized [1]: 0.936 and 0.999 and 0.976 and 0.971
X53BP1.R.V RPPA signal, normalized [1]: 0.978 and 0.924 and 0.982
b.Actin.R.C RPPA signal, normalized [1]: 0.918 and 0.939 and 0.975
b.Catenin.R.V RPPA signal, normalized [1]: 0.994 and 0.895 and 0.845
b.Catenin_pT41_S45.R.V RPPA signal, normalized [1]: 1.007 and 0.992 and 1.022
c.Abl.R.V RPPA signal, normalized [1]: 1.034 and 1.085 and 1.017
c.Abl_pY412.R.C RPPA signal, normalized [1]: 0.992 and 0.994 and 1.009
c.IAP2.R.C RPPA signal, normalized [1]: 1.048 and 1.023
C.Raf.R.C normalized signal (Norm_5 Average): 0.955
C.Raf_pS338.R.V normalized signal (Norm_5 Average): 1.097
CA9.R.C normalized signal (Norm_5 Average): 0.944
CD2.M.C normalized signal (Norm_5 Average): 0.959
CD4.R.V normalized signal (Norm_5 Average): 1.051
CD5.M.C normalized signal (Norm_5 Average): 0.995
CD20.R.C normalized signal (Norm_5 Average): 0.920
CD26.R.V normalized signal (Norm_5 Average): 0.984
CD29.M.V normalized signal (Norm_5 Average): 0.963
CD38.R.C normalized signal (Norm_5 Average): 1.035
CD44.R.C normalized signal (Norm_5 Average): 0.944
CD45.M.V normalized signal (Norm_5 Average): 0.967
CD49b.M.V normalized signal (Norm_5 Average): 0.979
CD68.M.C normalized signal (Norm_5 Average): 0.978
CD74.M.V normalized signal (Norm_5 Average): 0.927
CD134.R.V normalized signal (Norm_5 Average): 0.971
CD171.M.V normalized signal (Norm_5 Average): 0.783
CDK9.R.V normalized signal (Norm_5 Average): 0.955
CDKN2A.R.C normalized signal (Norm_5 Average): 0.941
CDT1.R.V normalized signal (Norm_5 Average): 0.908
CENP.A.R.V normalized signal (Norm_5 Average): 0.910
CHD1L.R.V normalized signal (Norm_5 Average): 1.009
COG3.R.V normalized signal (Norm_5 Average): 1.046
CRABP1.R.C normalized signal (Norm_5 Average): 0.948
CRABP2.R.V normalized signal (Norm_5 Average): 0.874
CSK.R.C normalized signal (Norm_5 Average): 0.850
Calnexin.R.V normalized signal (Norm_5 Average): 0.963
Caspase.3.cleaved.R.C normalized signal (Norm_5 Average): 1.016
Caspase.7.cleaved..R.C normalized signal (Norm_5 Average): 1.054
Caspase.8.M.Q normalized signal (Norm_5 Average): 0.985
